Experimental data published in PMC9186362, “Design and biological evaluation of substituted 5,7-dihydro-6H-indolo[2,3-c]quinolin-6-one as novel selective Haspin inhibitors” (Journal of Enzyme Inhibition and Medicinal Chemistry, 2022).

Key:
Assay in all cases: SelectScreen ZLYTE
Type in all cases: biochemical
HIPK4 = molecular target: T1, HIPK4 (Homo sapiens, UniProt Q8NE63); conditions: ATP Km, read-out: Percentage of inhibition
T1 construct: purchased Life Technologies (SelectScreen service)
Experimental: (§1) We further evaluated the selectivity profile of compound 55 on a larger panel of kinases (SelectScreen Whole Panel, Life Technologies). The inhibition profile of 55, evaluated at 1 μM, is depicted on a dendrogram on Figure 3 where kinases inhibited by a minimum of 80% are shown. A full list of the kinases tested is shown on Table S1 in supplementary information.

ABL1 F317L = molecular target: T2, ABL1 F317L (Homo sapiens, UniProt P00519, F317L); conditions: ATP Km, read-out: Percentage of inhibition
T2 construct: purchased Life Technologies (SelectScreen)
Experimental: as §1

EPHB1 = molecular target: T3, EPHB1 (Homo sapiens, UniProt P54762); conditions: ATP Km, read-out: Percentage of inhibition
T3 construct: purchased Life Technologies (SelectScreen Whole Panel)
Experimental: as §1

PRKG2 (PKG2) = molecular target: T4, PRKG2 (PKG2) (Homo sapiens, UniProt Q13237); conditions: ATP Km, read-out: Percentage of inhibition
T4 construct: purchased Life Technologies
Experimental: as §1

PRKCH (PKC eta) = PRKCH (PKC eta) (Homo sapiens, UniProt P24723); conditions: ATP Km, read-out: Percentage of inhibition
Experimental: as §1

FER = FER (Homo sapiens, UniProt P16591); conditions: ATP Km, read-out: Percentage of inhibition
Experimental: as §1

PAK7 (KIAA1264) = molecular target: T5, PAK7 (KIAA1264) (Homo sapiens, UniProt Q9P286); conditions: ATP Km, read-out: Percentage of inhibition
T5 construct: purchased Life Technologies (SelectScreen)
Experimental: as §1

CAMK1D (CaMKI delta) = molecular target: T6, CAMK1D (CaMKI delta) (Homo sapiens, UniProt Q8IU85); conditions: ATP Km, read-out: Percentage of inhibition
T6 construct: purchased Life Technologies (SelectScreen)
Experimental: as §1

MAPKAPK5 (PRAK) = MAPKAPK5 (PRAK) (Homo sapiens, UniProt Q8IW41); conditions: ATP Km, read-out: Percentage of inhibition
Experimental: as §1

PDK1 = PDK1 (Homo sapiens, UniProt O15530); conditions: ATP 100 µM, read-out: Percentage of inhibition
Experimental: as §1

CSNK2A1 (CK2 alpha 1) = CSNK2A1 (CK2 alpha 1) (Homo sapiens, UniProt P68400); conditions: ATP Km, read-out: Percentage of inhibition
Experimental: as §1

HIPK3 (YAK1) = molecular target: T7, HIPK3 (YAK1) (Homo sapiens, UniProt Q9H422); conditions: ATP Km, read-out: Percentage of inhibition
T7 construct: purchased Life Technologies
Experimental: as §1

RPS6KA2 (RSK3) = molecular target: T8, RPS6KA2 (RSK3) (Homo sapiens, UniProt Q15349); conditions: ATP Km, read-out: Percentage of inhibition
T8 construct: purchased Life Technologies (SelectScreen service)
Experimental: as §1

CDK5/p35 = molecular target: T9, CDK5/p35 (Homo sapiens, UniProt Q00535); conditions: ATP Km, read-out: Percentage of inhibition
T9 construct: purchased Life Technologies
Experimental: as §1

MAPKAPK2 = molecular target: T10, MAPKAPK2 (Homo sapiens, UniProt P49137); conditions: ATP Km, read-out: Percentage of inhibition
T10 construct: purchased Life Technologies
Experimental: as §1

GSK3A (GSK3 alpha) = molecular target: T11, GSK3A (GSK3 alpha) (Homo sapiens, UniProt P49840); conditions: ATP Km, read-out: Percentage of inhibition
T11 construct: purchased Life Technologies (SelectScreen service)
Experimental: as §1

SNF1LK2 = molecular target: T12, SNF1LK2 (Homo sapiens, UniProt Q9H0K1); conditions: ATP Km, read-out: Percentage of inhibition
T12 construct: purchased Life Technologies (SelectScreen service)
Experimental: as §1

MAPK1 (ERK2) = MAPK1 (ERK2) (Homo sapiens, UniProt P28482); conditions: ATP Km, read-out: Percentage of inhibition
Chain of MAPK1 (ERK2) (P28482 whole entry): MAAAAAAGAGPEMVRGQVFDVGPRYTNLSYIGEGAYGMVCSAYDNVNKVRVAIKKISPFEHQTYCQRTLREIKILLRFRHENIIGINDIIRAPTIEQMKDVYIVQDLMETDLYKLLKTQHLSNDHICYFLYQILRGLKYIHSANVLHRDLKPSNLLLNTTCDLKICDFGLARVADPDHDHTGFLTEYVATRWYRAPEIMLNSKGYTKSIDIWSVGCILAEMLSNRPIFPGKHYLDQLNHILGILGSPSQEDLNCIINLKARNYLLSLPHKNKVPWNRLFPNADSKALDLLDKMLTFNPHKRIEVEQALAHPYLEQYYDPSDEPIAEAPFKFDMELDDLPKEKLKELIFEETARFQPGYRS
Experimental: as §1

DAPK3 (ZIPK) = molecular target: T13, DAPK3 (ZIPK) (Homo sapiens, UniProt O43293); conditions: ATP Km, read-out: Percentage of inhibition
T13 construct: purchased Life Technologies (SelectScreen Whole Panel service)
T13 sequence (O43293 whole entry): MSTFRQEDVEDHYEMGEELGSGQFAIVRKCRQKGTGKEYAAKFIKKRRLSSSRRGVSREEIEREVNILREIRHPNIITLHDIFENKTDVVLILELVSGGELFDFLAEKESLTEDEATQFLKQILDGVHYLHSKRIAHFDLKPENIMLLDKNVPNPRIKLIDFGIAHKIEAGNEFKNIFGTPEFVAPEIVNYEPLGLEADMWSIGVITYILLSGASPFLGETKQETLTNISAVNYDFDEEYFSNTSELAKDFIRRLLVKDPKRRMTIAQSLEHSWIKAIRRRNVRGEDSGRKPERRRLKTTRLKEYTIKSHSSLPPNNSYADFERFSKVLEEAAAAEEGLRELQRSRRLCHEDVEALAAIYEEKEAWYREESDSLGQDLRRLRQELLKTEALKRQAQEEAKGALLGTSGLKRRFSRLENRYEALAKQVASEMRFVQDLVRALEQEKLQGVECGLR
Experimental: as §1

CSNK1E (CK1 epsilon) = molecular target: T14, CSNK1E (CK1 epsilon) (Homo sapiens, UniProt P49674); conditions: ATP Km, read-out: Percentage of inhibition
T14 construct: purchased Life Technologies (SelectScreen service)
Experimental: as §1

MET (cMet) Y1235D = molecular target: T15, MET (cMet) Y1235D (Homo sapiens, UniProt P08581, Y1235D); conditions: ATP Km, read-out: Percentage of inhibition
T15 construct: purchased Life Technologies
T15 sequence (P08581 25-1390 Y1235D): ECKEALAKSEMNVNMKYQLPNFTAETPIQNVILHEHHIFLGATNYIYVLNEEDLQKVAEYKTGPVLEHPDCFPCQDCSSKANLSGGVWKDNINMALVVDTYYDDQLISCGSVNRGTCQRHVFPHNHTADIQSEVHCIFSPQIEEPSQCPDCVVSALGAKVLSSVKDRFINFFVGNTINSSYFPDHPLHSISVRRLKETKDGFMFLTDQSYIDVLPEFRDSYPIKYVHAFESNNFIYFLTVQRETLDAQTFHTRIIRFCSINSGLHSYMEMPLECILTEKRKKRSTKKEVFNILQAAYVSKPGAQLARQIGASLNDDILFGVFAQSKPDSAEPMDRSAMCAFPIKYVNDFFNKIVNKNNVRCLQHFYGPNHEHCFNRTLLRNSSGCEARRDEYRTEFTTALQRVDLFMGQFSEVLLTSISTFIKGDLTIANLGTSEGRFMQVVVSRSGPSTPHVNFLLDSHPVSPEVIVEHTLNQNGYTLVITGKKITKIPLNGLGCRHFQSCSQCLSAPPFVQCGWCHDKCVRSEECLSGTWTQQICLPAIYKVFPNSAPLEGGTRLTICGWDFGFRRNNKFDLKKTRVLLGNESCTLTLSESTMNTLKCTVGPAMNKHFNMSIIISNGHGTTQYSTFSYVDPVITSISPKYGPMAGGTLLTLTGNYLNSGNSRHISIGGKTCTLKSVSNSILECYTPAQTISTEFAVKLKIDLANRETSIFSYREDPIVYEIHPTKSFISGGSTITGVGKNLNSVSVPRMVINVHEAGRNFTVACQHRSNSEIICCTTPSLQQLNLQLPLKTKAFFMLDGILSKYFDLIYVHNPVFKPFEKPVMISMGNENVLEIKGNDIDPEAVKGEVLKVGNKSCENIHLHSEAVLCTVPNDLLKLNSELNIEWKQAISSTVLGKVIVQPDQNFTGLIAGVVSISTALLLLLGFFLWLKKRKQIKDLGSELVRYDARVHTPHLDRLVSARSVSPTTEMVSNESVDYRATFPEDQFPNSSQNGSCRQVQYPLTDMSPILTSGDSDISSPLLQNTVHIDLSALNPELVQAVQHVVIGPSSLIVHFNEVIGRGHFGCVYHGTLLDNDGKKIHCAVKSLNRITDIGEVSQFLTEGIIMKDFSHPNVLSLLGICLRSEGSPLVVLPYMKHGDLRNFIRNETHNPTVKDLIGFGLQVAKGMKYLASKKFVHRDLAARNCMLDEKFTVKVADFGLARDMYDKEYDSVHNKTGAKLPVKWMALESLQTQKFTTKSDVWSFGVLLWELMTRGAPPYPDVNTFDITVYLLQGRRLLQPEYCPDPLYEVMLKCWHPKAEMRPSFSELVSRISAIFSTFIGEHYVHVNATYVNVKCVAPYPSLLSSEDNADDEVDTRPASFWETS
Experimental: as §1

EGFR (ErbB1) L861Q = molecular target: T16, EGFR (ErbB1) L861Q (Homo sapiens, UniProt P00533, L861Q); conditions: ATP Km, read-out: Percentage of inhibition
T16 construct: purchased Life Technologies (SelectScreen)
Experimental: as §1

FGFR3 K650E = molecular target: T17, FGFR3 K650E (Homo sapiens, UniProt P22607, K650E); conditions: ATP Km, read-out: Percentage of inhibition
T17 construct: purchased Life Technologies (SelectScreen Whole Panel service)
Experimental: as §1

PRKD2 (PKD2) = molecular target: T18, PRKD2 (PKD2) (Homo sapiens, UniProt Q9BZL6); conditions: ATP Km, read-out: Percentage of inhibition
T18 construct: purchased Life Technologies
Experimental: as §1

PIM3 = molecular target: T19, PIM3 (Homo sapiens, UniProt Q86V86); conditions: ATP Km, read-out: Percentage of inhibition
T19 construct: purchased Life Technologies
Experimental: as §1

EGFR (ErbB1) G719C = molecular target: T20, EGFR (ErbB1) G719C (Homo sapiens, UniProt P00533, G719C); conditions: ATP Km, read-out: Percentage of inhibition
T20 construct: purchased Life Technologies (SelectScreen)
T20 sequence (P00533 25-1210 G719C): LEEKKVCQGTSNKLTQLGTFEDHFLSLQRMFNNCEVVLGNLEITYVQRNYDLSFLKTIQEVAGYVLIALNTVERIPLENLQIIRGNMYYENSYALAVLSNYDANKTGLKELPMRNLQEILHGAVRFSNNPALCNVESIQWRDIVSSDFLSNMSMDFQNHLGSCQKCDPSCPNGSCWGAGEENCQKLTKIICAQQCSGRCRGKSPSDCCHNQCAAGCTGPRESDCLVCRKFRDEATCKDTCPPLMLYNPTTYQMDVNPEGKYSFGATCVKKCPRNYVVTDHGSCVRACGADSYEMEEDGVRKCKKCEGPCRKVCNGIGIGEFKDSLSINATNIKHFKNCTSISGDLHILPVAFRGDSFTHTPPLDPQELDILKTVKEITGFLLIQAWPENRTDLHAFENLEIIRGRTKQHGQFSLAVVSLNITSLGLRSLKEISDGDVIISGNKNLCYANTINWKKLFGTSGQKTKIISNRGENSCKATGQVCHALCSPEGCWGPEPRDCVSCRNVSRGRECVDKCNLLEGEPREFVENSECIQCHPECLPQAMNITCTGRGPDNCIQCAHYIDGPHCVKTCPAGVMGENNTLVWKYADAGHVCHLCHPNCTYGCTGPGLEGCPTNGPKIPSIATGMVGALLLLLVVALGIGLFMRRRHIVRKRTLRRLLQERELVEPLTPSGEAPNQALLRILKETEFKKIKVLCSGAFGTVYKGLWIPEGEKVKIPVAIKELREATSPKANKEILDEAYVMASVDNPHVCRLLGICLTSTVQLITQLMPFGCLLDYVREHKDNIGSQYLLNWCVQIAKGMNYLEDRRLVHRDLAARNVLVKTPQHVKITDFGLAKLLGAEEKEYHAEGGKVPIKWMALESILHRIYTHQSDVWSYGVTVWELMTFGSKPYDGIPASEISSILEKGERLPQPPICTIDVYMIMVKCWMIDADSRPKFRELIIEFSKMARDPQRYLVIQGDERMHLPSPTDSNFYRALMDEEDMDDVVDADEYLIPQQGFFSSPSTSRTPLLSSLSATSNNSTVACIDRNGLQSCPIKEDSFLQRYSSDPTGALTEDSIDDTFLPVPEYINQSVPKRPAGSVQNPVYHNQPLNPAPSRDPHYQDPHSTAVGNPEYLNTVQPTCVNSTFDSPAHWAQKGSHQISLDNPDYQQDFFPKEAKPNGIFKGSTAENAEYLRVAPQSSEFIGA
Experimental: as §1

SRMS (Srm) = molecular target: T21, SRMS (Srm) (Homo sapiens, UniProt Q9H3Y6); conditions: ATP Km, read-out: Percentage of inhibition
T21 construct: purchased Life Technologies (SelectScreen Whole Panel service)
Experimental: as §1

SYK = molecular target: T22, SYK (Homo sapiens, UniProt P43405); conditions: ATP Km, read-out: Percentage of inhibition
T22 construct: purchased Life Technologies (SelectScreen service)
Experimental: as §1

NEK6 = molecular target: T23, NEK6 (Homo sapiens, UniProt Q9HC98); conditions: ATP Km, read-out: Percentage of inhibition
T23 construct: purchased Life Technologies (SelectScreen)
Experimental: as §1

FLT4 (VEGFR3) = molecular target: T24, FLT4 (VEGFR3) (Homo sapiens, UniProt P35916); conditions: ATP Km, read-out: Percentage of inhibition
T24 construct: purchased Life Technologies (SelectScreen service)
Experimental: as §1

ERBB2 (HER2) = molecular target: T25, ERBB2 (HER2) (Homo sapiens, UniProt P04626); conditions: ATP Km, read-out: Percentage of inhibition
T25 construct: purchased Life Technologies
Experimental: as §1

MST1R (RON) = MST1R (RON) (Homo sapiens, UniProt Q04912); conditions: ATP Km, read-out: Percentage of inhibition
Experimental: as §1

CDC42 BPG (MRCKG) = molecular target: T26, CDC42 BPG (MRCKG) (Homo sapiens, UniProt Q6DT37); conditions: ATP Km, read-out: Percentage of inhibition
T26 construct: purchased Life Technologies (SelectScreen Whole Panel service)
Experimental: as §1

STK24 (MST3) = STK24 (MST3) (Homo sapiens, UniProt Q9Y6E0); conditions: ATP Km, read-out: Percentage of inhibition
Experimental: as §1

PTK2B (FAK2) = molecular target: T27, PTK2B (FAK2) (Homo sapiens, UniProt Q14289); conditions: ATP Km, read-out: Percentage of inhibition
T27 construct: purchased Life Technologies (SelectScreen Whole Panel service)
T27 sequence (Q14289 whole entry): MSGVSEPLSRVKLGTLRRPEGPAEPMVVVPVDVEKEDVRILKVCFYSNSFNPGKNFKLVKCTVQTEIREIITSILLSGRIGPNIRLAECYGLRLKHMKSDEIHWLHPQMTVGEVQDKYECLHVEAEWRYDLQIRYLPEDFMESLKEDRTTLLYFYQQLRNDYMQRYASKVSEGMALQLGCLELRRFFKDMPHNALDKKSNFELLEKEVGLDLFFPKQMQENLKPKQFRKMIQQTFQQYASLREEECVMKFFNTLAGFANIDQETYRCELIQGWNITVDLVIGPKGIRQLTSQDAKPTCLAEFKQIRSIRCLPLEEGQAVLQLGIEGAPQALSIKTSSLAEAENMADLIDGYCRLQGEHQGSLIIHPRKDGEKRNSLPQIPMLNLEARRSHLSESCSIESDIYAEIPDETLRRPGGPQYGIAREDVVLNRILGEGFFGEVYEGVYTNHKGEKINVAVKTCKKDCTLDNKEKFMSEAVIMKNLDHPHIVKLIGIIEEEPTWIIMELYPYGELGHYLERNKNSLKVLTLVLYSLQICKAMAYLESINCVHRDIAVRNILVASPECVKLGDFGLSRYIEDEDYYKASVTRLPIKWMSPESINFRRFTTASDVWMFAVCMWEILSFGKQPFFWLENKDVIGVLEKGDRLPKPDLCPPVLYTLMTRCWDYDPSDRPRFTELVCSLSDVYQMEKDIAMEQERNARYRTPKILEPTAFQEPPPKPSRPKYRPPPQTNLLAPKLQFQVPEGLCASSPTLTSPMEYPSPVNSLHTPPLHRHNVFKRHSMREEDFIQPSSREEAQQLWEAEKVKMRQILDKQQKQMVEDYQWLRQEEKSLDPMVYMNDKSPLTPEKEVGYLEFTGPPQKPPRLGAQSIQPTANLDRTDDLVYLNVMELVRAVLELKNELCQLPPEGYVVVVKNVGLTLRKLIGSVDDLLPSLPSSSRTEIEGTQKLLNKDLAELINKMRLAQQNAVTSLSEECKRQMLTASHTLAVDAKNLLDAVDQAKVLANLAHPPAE
Experimental: as §1

SRPK1 = SRPK1 (Homo sapiens, UniProt Q96SB4); conditions: ATP Km, read-out: Percentage of inhibition
Chain of SRPK1 (Q96SB4 whole entry): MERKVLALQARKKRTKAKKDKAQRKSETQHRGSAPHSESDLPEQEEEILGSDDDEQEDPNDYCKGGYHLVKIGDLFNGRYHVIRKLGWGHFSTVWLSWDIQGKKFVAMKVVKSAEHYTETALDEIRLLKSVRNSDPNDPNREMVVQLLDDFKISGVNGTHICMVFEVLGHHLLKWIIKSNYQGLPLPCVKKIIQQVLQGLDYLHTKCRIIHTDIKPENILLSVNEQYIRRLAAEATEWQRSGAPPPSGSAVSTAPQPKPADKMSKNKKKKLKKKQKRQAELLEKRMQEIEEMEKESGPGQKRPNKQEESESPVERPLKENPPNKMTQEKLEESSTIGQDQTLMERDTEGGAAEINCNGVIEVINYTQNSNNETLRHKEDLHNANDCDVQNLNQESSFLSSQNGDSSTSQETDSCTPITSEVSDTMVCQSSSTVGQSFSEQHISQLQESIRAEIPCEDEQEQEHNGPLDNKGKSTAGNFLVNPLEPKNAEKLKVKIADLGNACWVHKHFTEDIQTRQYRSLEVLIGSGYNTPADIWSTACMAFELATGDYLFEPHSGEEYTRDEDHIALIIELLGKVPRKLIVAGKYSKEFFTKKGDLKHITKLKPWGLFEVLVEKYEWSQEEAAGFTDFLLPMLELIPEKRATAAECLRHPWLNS
Experimental: as §1

PAK6 = molecular target: T28, PAK6 (Homo sapiens, UniProt Q9NQU5); conditions: ATP Km, read-out: Percentage of inhibition
T28 construct: purchased Life Technologies
Experimental: as §1

NEK1 = molecular target: T29, NEK1 (Homo sapiens, UniProt Q96PY6); conditions: ATP Km, read-out: Percentage of inhibition
T29 construct: purchased Life Technologies (SelectScreen Whole Panel service)
Experimental: as §1

Structure (SMILES): COc1ccc2[nH]c3c(=O)[nH]c4ccc(O)cc4c3c2c1 [Compound 55, 2-Hydroxy-10-methoxy-5,7-dihydro-6H-indolo[2,3-c]quinolin-6-one]
- inhibition at 1 µM (HIPK4): 24%
- inhibition at 1 µM (ABL1 F317L): 9%
- inhibition at 1 µM (EPHB1): 49%
- inhibition at 1 µM (PRKG2 (PKG2)): 37%
- inhibition at 1 µM (PRKCH (PKC eta)): 15%
- inhibition at 1 µM (FER): 56%
- inhibition at 1 µM (PAK7 (KIAA1264)): 8%
- inhibition at 1 µM (CAMK1D (CaMKI delta)): 8%
- inhibition at 1 µM (MAPKAPK5 (PRAK)): 22%
- inhibition at 1 µM (PDK1): 15%
- inhibition at 1 µM (CSNK2A1 (CK2 alpha 1)): 14%
- inhibition at 1 µM (HIPK3 (YAK1)): 35%
- inhibition at 1 µM (RPS6KA2 (RSK3)): 88%
- inhibition at 1 µM (CDK5/p35): 32%
- inhibition at 1 µM (MAPKAPK2): 2%
- inhibition at 1 µM (GSK3A (GSK3 alpha)): 82%
- inhibition at 1 µM (SNF1LK2): 24%
- inhibition at 1 µM (MAPK1 (ERK2)): 19%
- inhibition at 1 µM (DAPK3 (ZIPK)): 44%
- inhibition at 1 µM (CSNK1E (CK1 epsilon)): 73%
- inhibition at 1 µM (MET (cMet) Y1235D): 2%
- inhibition at 1 µM (EGFR (ErbB1) L861Q): 9%
- inhibition at 1 µM (FGFR3 K650E): 43%
- inhibition at 1 µM (PRKD2 (PKD2)): 39%
- inhibition at 1 µM (PIM3): 33%
- inhibition at 1 µM (EGFR (ErbB1) G719C): 8%
- inhibition at 1 µM (SRMS (Srm)): 16%
- inhibition at 1 µM (SYK): 82%
- inhibition at 1 µM (NEK6): 8%
- inhibition at 1 µM (FLT4 (VEGFR3)): 72%
- inhibition at 1 µM (ERBB2 (HER2)): 2%
- inhibition at 1 µM (MST1R (RON)): 6%
- inhibition at 1 µM (CDC42 BPG (MRCKG)): 12%
- inhibition at 1 µM (STK24 (MST3)): 63%
- inhibition at 1 µM (PTK2B (FAK2)): 46%
- inhibition at 1 µM (SRPK1): 7%
- inhibition at 1 µM (PAK6): 4%
- inhibition at 1 µM (NEK1): 17%
